We go through 2 compounds from paper PMC3517986 (Biochemical Journal, 2012).

Experiment [1] has as its target T1, WDR5 (Homo sapiens, UniProt P61964). The class given is binding. The conditions noted are these: fluorescence polarization, 40 nM FITC-WIN peptide, 5 μM WDR5, triplicate. (Polarisation of emitted light reports the rotation of a fluorescent probe.)
For experiment [2], the target named is T1, WDR5. The experiment can be described thus: ITC. The class given is binding.
Experiment [3] has as its target MLL–WDR5–RbBP5 core complex (trimeric complex) (Homo sapiens, UniProt P61964). Kind of experiment: Methyltransferase activity of trimeric MLL complex. The class given is biochemical.
Experiment [4] concerns the target MLL–WDR5–RbBP5–ASH2L complex (Homo sapiens, UniProt P61964). The experiment can be described thus: Methyltransferase activity of tetrameric MLL complex. The class given is biochemical. The conditions noted are these: tetrameric MLL complex at 10, 50 and 125 nM; not calculated owing to incomplete fitting.
The subject of experiment [5] is SETD7. Kind of experiment: HMT selectivity panel: SETD7. The format is biochemical, human. The conditions noted are these: concentrations up to 100 μM.
The test system of experiment [6] is G9a. Kind of experiment: HMT selectivity panel: G9a. The class given is biochemical, human. As to conditions: concentrations up to 100 μM.
For experiment [7], the system named is EHMT1. Kind of experiment: HMT selectivity panel: EHMT1. The class given is biochemical, human. The conditions noted are these: concentrations up to 100 μM.
In experiment [8] the test system is SUV39H2. Kind of experiment: HMT selectivity panel: SUV39H2. The class given is biochemical, human. The conditions noted are these: concentrations up to 100 μM.
The subject of experiment [9] is SETD8. Kind of experiment: HMT selectivity panel: SETD8. The format is biochemical, human. As to conditions: concentrations up to 100 μM.
Experiment [10] relates to PRMT3. The experiment can be described thus: HMT selectivity panel: PRMT3. The format is biochemical, human. The conditions noted are these: concentrations up to 100 μM.
Experiment [11] deals with PRMT5_MEP50 complex. Kind of experiment: HMT selectivity panel: PRMT5. As to conditions: concentrations up to 100 μM. The class given is biochemical, human.

Entries after “also recorded” stand apart in the source; their conditions may differ.

The Kd is a measure of binding affinity in units of concentration. Low values mean higher affinity, high ones lower affinity. As for `CN1CCN(c2ccc([N+](=O)[O-])cc2NC(=O)c2ccccc2)CC1` [WDR5-0101, N-(2-(4-methylpiperazin-1-yl)-5 nitrophenyl)benzamide], in experiment [1], the “Kdis (Kdisplacement)” value is 12 ± 1 µM. Besides, the affinity in [2], expressed as Kd, was 5.5 ± 0.6 µM.
By IC50 is commonly meant the concentration needed to halve the response being measured. Read a low IC50 as greater potency. `COC(=O)c1ccc(N2CCN(C)CC2)c(NC(=O)c2cccc(OC)c2)c1` [WDR5-0103, methyl-3-(3-methoxybenzamido)-4-(4-methylpiperazin-1-yl)benzoate]: the “Kdis (Kdisplacement)” value in [1] was determined as 3.0 ± 0.1 µM. In [2], this compound yielded a Kd of 0.45 ± 0.02 µM. Moreover, the IC50 in experiment [3] (IC50, 125 nM (0.125 μM) trimeric MLL complex) amounted to 39 ± 10 µM; in [3] (IC50, 500 nM trimeric MLL complex) it was 83 ± 10 µM; in experiment [3] (IC50, 1000 nM trimeric MLL complex) it was 280 ± 12 µM. In [4], the “IC50 relative to trimeric complex” value is given as “significantly higher”. Further, the inhibitory effect entry is given as “no inhibitory effect; also recorded: did not affect methyltransferase activity” in experiment [5]; “no inhibitory effect” in [6]; “no inhibitory effect” in [7]; “no inhibitory effect” in [8]; “no inhibitory effect” in experiment [9]; “no inhibitory effect” in [10]. The inhibitory effect result in experiment [11] is listed as “no inhibitory effect”.
